From US20150141435A1, “2-PYRIDONE ANTIMICROBIAL COMPOSITIONS” (Emergent BioSolutions, priority 2010, published 2015)
Converted amounts (≈) assume the structure as drawn. Structures can show the parent of a compound that is named as a salt. Where two headings read alike, the source gives them in different places.

Legend:
Type in all cases: cell-based
[1] = tested on: Francisella tularensis Schu S4; assay: microbe, parasite or virus in culture; settings: SCHUS4
S. pneumonia ATCC 49619 = assay: MIC, CLSI broth microdilution (Table 1); settings: Streptococcus pneumoniae
E. faecalis ATCC 29212 = assay: MIC, CLSI broth microdilution (Table 1); settings: Enterococcus faecalis
[2] = tested on: S. aureus ATCC 43300 (MRSA, FQ-S); assay: MIC, CLSI broth microdilution (Table 1); settings: Staphylococcus aureus, read-out: MIC S. aureus ATCC 43300 (MRSA, FQ-S)
E. faecium ATCC 19434 = assay: MIC, CLSI broth microdilution (Table 1); settings: Enterococcus faecium
A. baumannii ATCC 19606 = assay: MIC, CLSI broth microdilution (Table 2); settings: Acinetobacter baumannii
K. pneumoniae ATCC 33495 = assay: MIC, CLSI broth microdilution (Table 2); settings: Klebsiella pneumoniae
[3] = tested on: S. maltophilia ATCC 17677; assay: MIC, CLSI broth microdilution (Table 2); settings: Stenotrophomonas maltophilia
Yersinia pestis C092 = assay: microbe, parasite or virus in culture
S. aureus ATCC 25923 = assay: MIC, CLSI broth microdilution (Table 1); settings: Staphylococcus aureus
[4] = tested on: Burkholderia mallei ATCC 23344; assay: microbe, parasite or virus in culture; settings: ATCC23344
[5] = tested on: S. aureus BAA-1720 (MRSA, FQ-R); assay: MIC, CLSI broth microdilution (Table 1); settings: Staphylococcus aureus, read-out: MIC S. aureus BAA-1720 (MRSA, FQ-R)
[6] = tested on: Brucella abortus ATCC 23448; assay: microbe, parasite or virus in culture; settings: ATCC23448
[7] = tested on: Burkholderia pseudomallei ATCC 23343; assay: microbe, parasite or virus in culture; settings: ATCC23343
E. coli ATCC 25922 = assay: MIC, CLSI broth microdilution (Table 2); settings: Escherichia coli
[8] = tested on: Bacillus anthracis Ames strain; assay: microbe, parasite or virus in culture
H. influenzae ATCC 49247 = assay: MIC, CLSI broth microdilution (Table 2); settings: Haemophilus influenzae
P. aeruginosa ATCC 27853 = assay: MIC, CLSI broth microdilution (Table 2); settings: Pseudomonas aeruginosa
[9] = ATCC49619, read-out: MIC S. pneumonia ATCC 49619
[10] = ATCC29212, read-out: MIC E. faecalis ATCC 29212
[11] = ATCC19434, read-out: MIC E. faecium ATCC 19434
[12] = ATCC19606, read-out: MIC A. baumannii B. ATCC 19606
[13] = ATCC33495, read-out: MIC K. pneumoniae ATCC 33495
[14] = ATCC17677, read-out: MIC S. maltophilia ATCC 17677
[15] = ATCC25923, read-out: MIC S. aureus ATCC 25923
[16] = ATCC25922, read-out: MIC E. coli ATCC 25922
[17] = ATCC49247, read-out: MIC H. influenzae ATCC 49247
[18] = ATCC49619, Gram positive, MHB, 37° C., 16-20 hours, read-out: MIC S. pneumonia ATCC 49619
[19] = ATCC29212, Gram positive, MHB, 37° C., 16-20 hours, read-out: MIC E. faecalis ATCC 29212
[20] = Gram positive, MHB, 37° C., 16-20 hours
[21] = ATCC19434, Gram positive, MHB, 37° C., 16-20 hours, read-out: MIC E. faecium ATCC 19434
[22] = ATCC19606, Gram negative, MHB, 37° C., 16-20 hours, read-out: MIC A. baumannii B. ATCC 19606
[23] = ATCC33495, Gram negative, MHB, 37° C., 16-20 hours, read-out: MIC K. pneumoniae ATCC 33495
[24] = ATCC27853, Gram negative, MHB, 37° C., 16-20 hours, read-out: MIC P. aeruginosa ATCC 27853
[25] = ATCC17677, Gram negative, MHB, 37° C., 16-20 hours, read-out: MIC S. maltophilia ATCC 17677
[26] = ATCC25923, Gram positive, MHB, 37° C., 16-20 hours, read-out: MIC S. aureus ATCC 25923
[27] = ATCC49247, Gram negative, MHB, 37° C., 16-20 hours, read-out: MIC H. influenzae ATCC 49247
[28] = ATCC25922, Gram negative, MHB, 37° C., 16-20 hours, read-out: MIC E. coli ATCC 25922

| SMILES | MIC [1] [µg/mL] | MIC (S. pneumonia ATCC 49619; [9]) [µg/mL] | MIC (A. baumannii ATCC 19606; [12]) [µg/mL] | MIC (K. pneumoniae ATCC 33495; [13]) [µg/mL] | MIC [3, 14] [µg/mL] | MIC (Yersinia pestis C092) [µg/mL] | MIC [4] [µg/mL] | MIC [6] [µg/mL] | MIC [7] [µg/mL] | MIC (E. coli ATCC 25922; [16]) [µg/mL] | MIC [8] [µg/mL] | MIC (S. pneumonia ATCC 49619; [18]) [µg/mL] | MIC (E. faecalis ATCC 29212; [19]) [µg/mL] | MIC [2, 20] [µg/mL] | MIC (E. faecium ATCC 19434; [21]) [µg/mL] | MIC (A. baumannii ATCC 19606; [22]) [µg/mL] | MIC (P. aeruginosa ATCC 27853; [24]) [µg/mL] | MIC (S. aureus ATCC 25923; [26]) [µg/mL] | MIC [5, 20] [µg/mL] | MIC (H. influenzae ATCC 49247; [27]) [µg/mL] | also measured |
| --- | --- | --- | --- | --- | --- | --- | --- | --- | --- | --- | --- | --- | --- | --- | --- | --- | --- | --- | --- | --- | --- |
| Cc1c(-c2ccc(N)c(F)c2)c(F)cn2c(=O)c(C(=O)O)cc(C3CC3)c12 [Example 1 K salt, 8-(4-amino-3-fluoro-phenyl)-1-cyclopropyl-7-fluoro-9-methyl-4-oxo-4H-quinolizine-3-carboxylic acid] | 0.016 | 0.016 | 0.064 | 0.125 | 0.125 | 0.031 | 0.25 to 0.5 | 0.031 | 0.5 | 0.032 to 0.064 | 0.004 | – | – | – | – | – | – | – | – | – | MIC (E. faecalis ATCC 29212; [10]): 0.008 µg/mL; MIC [2]: ≤ 0.004 µg/mL; MIC (E. faecium ATCC 19434; [11]): 0.25 µg/mL; MIC (S. aureus ATCC 25923; [15]): ≤ 0.004 µg/mL; MIC [5]: 0.125 µg/mL; MIC (H. influenzae ATCC 49247; [17]): ≤ 0.004 µg/mL |
| Cc1c(-c2ccc(N)c(F)c2)ccn2c(=O)c(C(=O)O)cc(C3CC3)c12 [Example 2 K salt, 8-(4-amino-3-fluoro-phenyl)-1-cyclopropyl-9-methyl-4-oxo-4H-quinolizine-3-carboxylic acid] | 0.016 | 0.032 | 0.125 | 0.125 | 0.125 | 0.031 | 0.063 | 0.016 to 0.031 | 0.063 | 0.032 | 0.004 | – | – | – | – | – | – | – | – | – | MIC (E. faecalis ATCC 29212; [10]): 0.016 µg/mL; MIC [2]: 0.004 µg/mL; MIC (E. faecium ATCC 19434; [11]): 0.25 µg/mL; MIC (P. aeruginosa ATCC 27853; ATCC27853, read-out: MIC P. aeruginosa ATCC 27853): 1 µg/mL; MIC (S. aureus ATCC 25923; [15]): ≤ 0.004 µg/mL; MIC [5]: 0.125 µg/mL; MIC (H. influenzae ATCC 49247; [17]): ≤ 0.004 µg/mL |
| Cc1c(-c2cccc(N)c2)ccn2c(=O)c(C(=O)O)cc(C3CC3)c12 [Example 3 K salt, 8-(3-amino-phenyl)-1-cyclopropyl-9-methyl-4-oxo-4H-quinolizine-3-carboxylic acid] | 0.031 | – | – | – | – | 0.031 to 0.063 | 0.5 to 1 | 0.125 | 0.25 | 0.064 to 0.125 | 0.008 | 0.25 | 0.064 | 0.016 | 1 | 0.25 | 2 | 0.016 | 0.5 | 0.016 | MIC (K. pneumoniae ATCC 33495; [23]): 0.25 µg/mL; MIC [3, 25]: 0.25 µg/mL |
| Cc1c(-c2ccc(F)c(N)c2)ccn2c(=O)c(C(=O)O)cc(C3CC3)c12 [Example 8 K salt, 8-(3-amino-4-fluoro-phenyl)-1-cyclopropyl-9-methyl-4-oxo-4H-quinolizine-3-carboxylic acid] | 0.031 | 0.125 | 0.064 to 0.125 | 0.125 | 0.125 | 0.031 | 0.25 | 0.063 | 0.125 | – | 0.008 | – | 0.032 | 0.008 | 0.5 | – | 2 | 0.008 | 0.25 | 0.064 | MIC (E. coli ATCC 25922; [28]): 0.032 to 0.064 µg/mL |
| Cc1c(-c2cc(N)cc(F)c2)ccn2c(=O)c(C(=O)O)cc(C3CC3)c12 [Example 9 K salt, 8-(3-amino-5-fluoro-phenyl)-1-cyclopropyl-9-methyl-4-oxo-4H-quinolizine-3-carboxylic acid] | 0.016 | – | – | 0.125 to 0.25 | – | 0.031 | 0.125 to 0.25 | 0.063 | 0.25 | – | 0.008 | 0.064 | 0.032 | 0.008 | 0.5 | 0.125 | 2 | 0.008 | 0.25 | 0.008 | MIC [3, 25]: 0.25 µg/mL; MIC (E. coli ATCC 25922; [28]): 0.064 µg/mL |
| Cc1c(-c2ccncc2)ccn2c(=O)c(C(=O)O)cc(C3CC3)c12 [Example 16 K salt, 1-cyclopropyl-9-methyl-4-oxo-8-(pyridin-4-yl)-4H-quinolizine-3-carboxylic acid] | 0.016 to 0.031 | 0.125 | 0.125 | 0.125 | 0.125 | 0.031 | 0.125 | 0.063 | 0.125 | 0.032 | 0.016 | – | – | – | – | – | – | – | – | – | MIC (E. faecalis ATCC 29212; [10]): 0.064 µg/mL; MIC [2]: 0.016 µg/mL; MIC (S. aureus ATCC 25923; [15]): 0.016 µg/mL; MIC [5]: 0.5 to 1 µg/mL; MIC (H. influenzae ATCC 49247; [17]): ≤ 0.004 µg/mL |
| COc1ccc(-c2ccn3c(=O)c(C(=O)O)cc(C4CC4)c3c2C)cc1 [Example 47 K salt, 1-cyclopropyl-8-(4-methoxy-phenyl)-9-methyl-4-oxo-4H-quinolizine-3-carboxylic acid] | – | – | – | – | – | – | – | – | – | – | – | 0.25 | 0.032 to 0.064 | 0.016 | 1 | 0.5 | 4 | 0.016 | 0.5 to 1 | 0.032 | MIC (K. pneumoniae ATCC 33495; [23]): 1 to 2 µg/mL; MIC [3, 25]: 0.5 µg/mL; MIC (E. coli ATCC 25922; [28]): 0.25 µg/mL |
| COc1c(N2C[C@@H]3CCCN[C@@H]3C2)c(F)cc2c(=O)c(C(=O)O)cn(C3CC3)c12 [Moxyfloxacin, reference compound] | – | – | – | – | – | – | – | – | – | – | – | 0.125 (≈ 0.311 µM) | 0.25 (≈ 0.623 µM) | 0.064 (≈ 0.159 µM) | 4 (≈ 9.96 µM) | 0.5 (≈ 1.25 µM) | 2 (≈ 4.98 µM) | 0.064 (≈ 0.159 µM) | 4 (≈ 9.96 µM) | 0.032 (≈ 0.0797 µM) | MIC (K. pneumoniae ATCC 33495; [23]): 0.125 µg/mL (≈ 0.311 µM); MIC [3, 25]: 0.125 µg/mL (≈ 0.311 µM); MIC (E. coli ATCC 25922; [28]): 0.032 µg/mL (≈ 0.0797 µM) |
